Target: P. falciparum apicoplast DNA polymerase (Pf-apPOL) (Plasmodium falciparum, UniProt Q8ILY1)
Test: Fluorescence-based high-throughput DNA polymerase assay (molecular beacon), primary screen and dose-response
Format: biochemical
Protocol: The HT assay employs a molecular beacon, a stem-loop DNA template with a Cy3 dye and the Black Hole Quencher on the 3′ and 5′ ends of the DNA, respectively. Pf-apPOL concentration is based on a calculated absorptivity of ε280 = 56750 M^−1 cm^−1. Reactions were carried out at 25 °C, using Corning 3575 […] (well-volume, 20 µL). Assays testing for compound inhibition composed of reaction buffer (pH 7.9 in 50 mM potassium acetate, 20 mM Tris-acetate and 10 mM magnesium acetate), Pf-apPOL (20 nM), DNA substrate (20 nM), dNTPs (6 µM), and compound (10 µM in DMSO). The DNA and nucleotide substrates (dNTPs) were at concentrations of 20 nM and 6 µM, respectively, in the assay. Pf-apPOL was incubated in the reaction buffer with dNTPs and the compound of interest (10 µM, in the assay) at 25 °C for 10 min. The DNA substrate was then added and the reaction was allowed to proceed for 90 min at 25 °C.
Each assay plate contained 16 negative controls (no Pf-apPOL, DMSO present) and 16 positive controls (Pf-apPOL present, no DMSO). The fluorescence of each well was determined using a BioTek Synergy Neo fluorescence plate reader using excitation and emission wavelengths of 555 and 570 nm, respectively.
In the above, Min is the average of fluorescence emission of the negative controls (substrate only), Max the average fluorescence emission from the positive controls (enzyme + substrate), and Test the emission from the assays in the presence of compounds (enzyme + compound + substrates). […] […] The IC50 of each compound was determined using Equation (2): (2) IC50= Vmax/(1+ (I/IC50)^n)
In the above, n measures cooperativity, with n > 1 indicating synergistic binding of more than a single molecule of the compound.
To identify apPOL inhibitors we utilised our previously developed high-throughput DNA polymerase assay. The HT assay is based on a molecular beacon DNA template that forms a stem-loop with a Cy3 dye and the Black Hole Quencher on the 3′ and 5′ ends of the DNA, respectively. DNA polymerase activity extends an annealed primer through the stem region, displacing the fluorophore from the quencher, thereby increasing its fluorescence (Figure 1(A)). The assay accurately recapitulates the kinetic behaviour of apPOL, as measured through more conventional low-throughput gel-based assays. The Z′ factor for the assay described here was 0.9 across all plates (data not shown).
Figure 1. High-throughput screening. (A) The fluorescent-based DNA polymerase assay used to screen the compound libraries. The DNA template strand is a hairpin loop with a primer annealed to the loop. The 3’ end of the primer is 11 bases away from the 6 bp duplex. Strand displacement activity of the DNA polymerase separates the Cy3 dye from the Black hole quencher leading to an increase in fluorescent signal. (B) The high-throughput assay workflow. The DNA polymerase is incubated with […] compound for 10 min prior to addition of the hairpin substrate. The reaction is quenched at 3 different time points and the fluorescent signal is measured and % inhibition is determined using the provided equation.

[1] = supplemental file 2, sheet IC50 nontoxic compounds; Pf-apPOL

Chain of P. falciparum apicoplast DNA polymerase (Pf-apPOL) (Q8ILY1 entry or part of it): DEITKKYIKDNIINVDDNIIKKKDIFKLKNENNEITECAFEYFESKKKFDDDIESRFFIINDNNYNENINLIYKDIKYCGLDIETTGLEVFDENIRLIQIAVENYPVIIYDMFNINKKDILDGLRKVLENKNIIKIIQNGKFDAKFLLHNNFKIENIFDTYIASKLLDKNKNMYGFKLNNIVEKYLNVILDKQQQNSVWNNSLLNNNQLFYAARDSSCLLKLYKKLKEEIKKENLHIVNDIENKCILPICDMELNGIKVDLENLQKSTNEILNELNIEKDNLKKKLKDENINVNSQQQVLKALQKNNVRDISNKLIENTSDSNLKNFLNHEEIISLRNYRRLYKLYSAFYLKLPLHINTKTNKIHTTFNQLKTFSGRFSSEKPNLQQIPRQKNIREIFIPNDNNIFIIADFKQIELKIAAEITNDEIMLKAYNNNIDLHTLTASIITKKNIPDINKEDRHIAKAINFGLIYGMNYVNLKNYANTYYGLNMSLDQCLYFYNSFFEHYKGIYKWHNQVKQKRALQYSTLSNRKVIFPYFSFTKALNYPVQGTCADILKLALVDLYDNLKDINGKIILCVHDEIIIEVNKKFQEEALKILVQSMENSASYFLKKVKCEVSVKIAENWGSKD

Q: How did the IC50 [1] turn out when `NC(=O)c1cc[n+](CC2=C(C(=O)O)N3C(=O)[C@@H](NC(=O)[C@@H](c4ccccc4)S(=O)(=O)[O-])[C@H]3SC2)cc1` [Molecule 9] was run?
A: 4.4 µM

Q: What does the source list for `Oc1ccc(N=Nc2ccccc2)c(O)c1` [Molecule 80, Oc1ccc(c(c1)O)N=Nc1ccccc1]?
A: DNA Pol (186 hits, value of the hit list (primary screen); unit not given; 90 min, 10 µM): 72; % inhibition Apo pol 10' (DRC-1; 10'; concentration 2.5): 10.9556%; % inhibition Apo pol 10' (DRC-1; 10'; concentration 5): 10.5427%; % inhibition Apo pol 10' (DRC-1; 10'; concentration 10): 21.5612%; % inhibition Apo pol 10' (DRC-1; 10'; concentration 20): 33.6555%; % inhibition Apo pol 10' (DRC-1; 10'; concentration 40): 51.3856%; % inhibition Apo pol 10' (DRC-1; 10'; concentration 80): 71.5271%; % inhibition Apol 90' (DRC-1; 90'; concentration 2.5): -0.1987%; % inhibition Apol 90' (DRC-1; 90'; concentration 5): 0.4517%; % inhibition Apol 90' (DRC-1; 90'; concentration 10): 6.956%; % inhibition Apol 90' (DRC-1; 90'; concentration 20): 15.0719%; % inhibition Apol 90' (DRC-1; 90'; concentration 40): 30.4244%; % inhibition Apol 90' (DRC-1; 90'; concentration 80): 54.1765%; % inhibition apPOL 180' (DRC-1; 180'; concentration 2.5): -4.521%; % inhibition apPOL 180' (DRC-1; 180'; concentration 5): -7.381%; % inhibition apPOL 180' (DRC-1; 180'; concentration 10): -2.239%; % inhibition apPOL 180' (DRC-1; 180'; concentration 20): 3.639%; % inhibition apPOL 180' (DRC-1; 180'; concentration 40): 16.6852%; % inhibition apPOL 180' (DRC-1; 180'; concentration 80): 39.1474%; % inhibition Apo pol 5' (DRC-2, 5', concentration 2.5): 1.77%; % inhibition Apo pol 5' (DRC-2, 5', concentration 5): 5.48%; % inhibition Apo pol 5' (DRC-2, 5', concentration 10): 24%; % inhibition Apo pol 5' (DRC-2, 5', concentration 20): 31%; % inhibition Apo pol 5' (DRC-2, 5', concentration 40): 44%; % inhibition Apo pol 5' (DRC-2, 5', concentration 80): 51%; % inhibition Apol 40' (DRC-2, 40', concentration 2.5): 1.06%; % inhibition Apol 40' (DRC-2, 40', concentration 5): 2.17%; % inhibition Apol 40' (DRC-2, 40', concentration 10): 23%; % inhibition Apol 40' (DRC-2, 40', concentration 20): 29%; % inhibition Apol 40' (DRC-2, 40', concentration 40): 43%; % inhibition Apol 40' (DRC-2, 40', concentration 80): 54%; % inhibition ApPOL 90' (DRC-2, 90', concentration 2.5): -1%; % inhibition ApPOL 90' (DRC-2, 90', concentration 5): -0.664%; % inhibition ApPOL 90' (DRC-2, 90', concentration 10): 21%; % inhibition ApPOL 90' (DRC-2, 90', concentration 20): 24%; % inhibition ApPOL 90' (DRC-2, 90', concentration 40): 38%; % inhibition ApPOL 90' (DRC-2, 90', concentration 80): 52%; % inhibition apPOL 180' (DRC-2, 180', concentration 2.5): -4%; % inhibition apPOL 180' (DRC-2, 180', concentration 5): -4.42%; % inhibition apPOL 180' (DRC-2, 180', concentration 10): 16%; % inhibition apPOL 180' (DRC-2, 180', concentration 20): 15%; % inhibition apPOL 180' (DRC-2, 180', concentration 40): 25%; % inhibition apPOL 180' (DRC-2, 180', concentration 80): 41%; % inhibition Apo pol 5' (DRC-2; 5'; concentration 10): 24%; % inhibition ApPOL 90' (DRC-2; 90'; concentration 20): 24%; DNA Pol (primary screen value, 'DNA Pol' only; 90 min, 10 µM): 72

Q: For `Cc1cccc(NC(=O)Cn2ccc3c(=O)[nH]ccc32)c1C` [Molecule 11, O=C(Cn1ccc2c1cc[nH]c2=O)Nc1cccc(c1C)C], which “DNA Pol” value ('DNA Pol' of the 186 hits list (screen value); 90 min, 10 µM) is on record?
A: 54

Q: What about the “% inhibition Apo pol 10'” value (DRC-1; 10'; conc 2.5) of the same compound?
A: 3.616%

Q: And the “% inhibition Apo pol 10'” value (DRC-1; 10'; conc 5)?
A: 26.2157%

Q: What about the “% inhibition Apo pol 10'” value (DRC-1; 10'; conc 10) of the same compound?
A: 64.035%

Q: What about the “% inhibition Apo pol 10'” value (DRC-1; 10'; conc 20) of the same compound?
A: 84.2642%

Q: And the “% inhibition Apo pol 10'” value (DRC-1; 10'; conc 40)?
A: 89.6589%

Q: And the “% inhibition Apo pol 10'” value (DRC-1; 10'; conc 80)?
A: 84.1772%

Q: And the “% inhibition Apol 90'” value (DRC-1; 90'; conc 2.5)?
A: 0.4643%

Q: What about the “% inhibition Apol 90'” value (DRC-1; 90'; conc 5) of the same compound?
A: 14.6206%

Q: What about the “% inhibition Apol 90'” value (DRC-1; 90'; conc 10) of the same compound?
A: 51.1257%

Q: And the “% inhibition Apol 90'” value (DRC-1; 90'; conc 20)?
A: 80.5216%

Q: And the “% inhibition Apol 90'” value (DRC-1; 90'; conc 40)?
A: 91.1147%

Q: And the “% inhibition Apol 90'” value (DRC-1; 90'; conc 80)?
A: 90.9413%

Q: What about the “% inhibition apPOL 180'” value (DRC-1; 180'; conc 2.5) of the same compound?
A: -2.306%

Q: What about the “% inhibition apPOL 180'” value (DRC-1; 180'; conc 5) of the same compound?
A: 3.486%

Q: And the “% inhibition apPOL 180'” value (DRC-1; 180'; conc 10)?
A: 34.4928%

Q: What about the “% inhibition apPOL 180'” value (DRC-1; 180'; conc 20) of the same compound?
A: 70.7317%

Q: And the “% inhibition apPOL 180'” value (DRC-1; 180'; conc 40)?
A: 89.3869%

Q: And the “% inhibition apPOL 180'” value (DRC-1; 180'; conc 80)?
A: 93.0322%

Q: And the “% inhibition Apo pol 5'” value (DRC-2; 5'; conc 2.5)?
A: 1.64%

Q: What about the “% inhibition Apo pol 5'” value (DRC-2; 5'; conc 5) of the same compound?
A: 23%

Q: And the “% inhibition Apo pol 5'” value (DRC-2; 5'; conc 10)?
A: 46%

Q: What about the “% inhibition Apo pol 5'” value (DRC-2; 5'; conc 20) of the same compound?
A: 49%

Q: And the “% inhibition Apo pol 5'” value (DRC-2; 5'; conc 40)?
A: 47%

Q: What about the “% inhibition Apo pol 5'” value (DRC-2; 5'; conc 80) of the same compound?
A: 39%

Q: And the “% inhibition Apol 40'” value (DRC-2; 40'; conc 2.5)?
A: 0.556%

Q: What about the “% inhibition Apol 40'” value (DRC-2; 40'; conc 5) of the same compound?
A: 28%

Q: And the “% inhibition Apol 40'” value (DRC-2; 40'; conc 10)?
A: 58%

Q: And the “% inhibition Apol 40'” value (DRC-2; 40'; conc 20)?
A: 67%

Q: What about the “% inhibition Apol 40'” value (DRC-2; 40'; conc 40) of the same compound?
A: 69%

Q: And the “% inhibition Apol 40'” value (DRC-2; 40'; conc 80)?
A: 66%

Q: And the “% inhibition Apol 40'” value (DRC-2; 40'; concentration 10)?
A: 58%

Q: And the “% inhibition Apol 40'” value (DRC-2; 40'; concentration 40)?
A: 69%

Q: What about the “% inhibition ApPOL 90'” value (DRC-2; 90'; conc 2.5) of the same compound?
A: -1.29%

Q: What about the “% inhibition ApPOL 90'” value (DRC-2; 90'; conc 5) of the same compound?
A: 24%

Q: And the “% inhibition ApPOL 90'” value (DRC-2; 90'; conc 10)?
A: 58%

Q: And the “% inhibition ApPOL 90'” value (DRC-2; 90'; conc 20)?
A: 70%

Q: And the “% inhibition ApPOL 90'” value (DRC-2; 90'; conc 40)?
A: 73%

Q: What about the “% inhibition ApPOL 90'” value (DRC-2; 90'; conc 80) of the same compound?
A: 72%

Q: And the “% inhibition ApPOL 90'” value (DRC-2; 90'; concentration 10)?
A: 58%

Q: And the “% inhibition apPOL 180'” value (DRC-2; 180'; conc 2.5)?
A: -8%

Q: What about the “% inhibition apPOL 180'” value (DRC-2; 180'; conc 5) of the same compound?
A: 13%

Q: And the “% inhibition apPOL 180'” value (DRC-2; 180'; conc 10)?
A: 50%

Q: What about the “% inhibition apPOL 180'” value (DRC-2; 180'; conc 20) of the same compound?
A: 69%

Q: And the “% inhibition apPOL 180'” value (DRC-2; 180'; conc 40)?
A: 77%

Q: What about the “% inhibition apPOL 180'” value (DRC-2; 180'; conc 80) of the same compound?
A: 77%

Q: What about the “% inhibition apPOL 180'” value (DRC-2; 180'; concentration 20) of the same compound?
A: 69%

Q: What about the “% inhibition apPOL 180'” value (DRC-2; 180'; concentration 40) of the same compound?
A: 77%

Q: And the “% inhibition apPOL 180'” value (DRC-2; 180'; concentration 80)?
A: 77%

Q: And the “DNA Pol” value (primary screen value, "DNA Pol"; 90 min, 10 µM)?
A: 54

Q: How did the IC50 [1] turn out when `O=C1c2ccccc2C(=O)N1Oc1ccc([N+](=O)[O-])c([N+](=O)[O-])c1` [Molecule 66] was run?
A: 37 µM
